pIC50, pKd, pKi: −log10 of the molar value.
What was measured:
[1] = biological target: T1, Amyloid-beta precursor protein (Homo sapiens, UniProt P05067); experiment: Binding affinity to amyloid beta (1 to 40) (unknown origin) fibrils
[2] = Binding affinity to amyloid beta (unknown origin); parameters: species or system Homo sapiens
[3] = Binding affinity to amyloid beta (unknown origin) aggregates; parameters: species or system Homo sapiens
[4] = organism: Homo sapiens; experiment: Inhibition of amyloid beta (unknown origin) assessed as decrease in amyloid beta monomers
[5] = Lipophilicity, logP of compound; format: physicochemical; conditions: octanol/water
[6] = biological target: T1, Amyloid-beta precursor protein; experiment: Binding affinity to amyloid beta (1 to 40) (unknown origin) monomer
[7] = biological target: T1, Amyloid-beta precursor protein; experiment: Binding affinity to amyloid beta (1 to 42) (unknown origin) monomer
[8] = Binding affinity to tau protein (unknown origin); parameters: species or system Homo sapiens
[9] = Drug uptake in brain of Tg mouse at 2 mins post injection; format: ADME, tissue-based; conditions: read-out: Drug uptake
[10] = biological target: T1, Amyloid-beta precursor protein; experiment: Binding affinity to amyloid beta (1 to 42) (unknown origin) fibrils
[11] = Drug uptake in brain of Tg mouse; format: ADME, tissue-based
[12] = biological target: T1, Amyloid-beta precursor protein; experiment: Binding affinity to amyloid beta (1 to 42) (unknown origin) aggregates
[13] = biological target: T1, Amyloid-beta precursor protein; experiment: Displacement of [125I]IMPY from amyloid beta (1 to 42) (unknown origin) measured by competitive radioligand binding assay
[14] = Binding affinity to amyloid beta (unknown origin) monomer; parameters: species or system Homo sapiens
[15] = biological target: T1, Amyloid-beta precursor protein; experiment: Binding affinity to amyloid beta (1 to 42) (unknown origin) oligomer
[16] = biological target: T1, Amyloid-beta precursor protein; experiment: Binding affinity to amyloid beta (1 to 40) (unknown origin) oligomer

T1 sequence (P05067 whole entry): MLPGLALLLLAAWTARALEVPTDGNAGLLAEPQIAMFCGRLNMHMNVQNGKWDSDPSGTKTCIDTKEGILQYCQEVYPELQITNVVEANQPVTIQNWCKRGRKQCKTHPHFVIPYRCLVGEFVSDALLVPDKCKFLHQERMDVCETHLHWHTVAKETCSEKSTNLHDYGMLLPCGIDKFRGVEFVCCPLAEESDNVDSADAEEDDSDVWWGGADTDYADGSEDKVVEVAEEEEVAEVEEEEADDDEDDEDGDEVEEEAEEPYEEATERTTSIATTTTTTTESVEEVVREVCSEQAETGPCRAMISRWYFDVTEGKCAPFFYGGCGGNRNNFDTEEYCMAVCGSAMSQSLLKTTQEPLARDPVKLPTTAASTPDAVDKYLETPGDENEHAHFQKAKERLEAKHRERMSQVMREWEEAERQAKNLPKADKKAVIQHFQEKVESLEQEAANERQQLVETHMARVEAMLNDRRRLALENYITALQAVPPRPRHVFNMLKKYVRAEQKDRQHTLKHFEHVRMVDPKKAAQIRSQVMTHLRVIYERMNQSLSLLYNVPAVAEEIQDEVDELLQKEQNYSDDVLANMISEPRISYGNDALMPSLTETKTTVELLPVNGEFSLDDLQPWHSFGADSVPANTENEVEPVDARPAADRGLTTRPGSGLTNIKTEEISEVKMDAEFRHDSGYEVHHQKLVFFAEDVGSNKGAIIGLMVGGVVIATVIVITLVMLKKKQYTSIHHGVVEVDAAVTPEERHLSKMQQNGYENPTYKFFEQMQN

With `COCCOCCn1c2ccccc2c2cc(/C=C/c3cc[n+](CCO)cc3)ccc21` the pKd [1] was 3.34.
Molecule `COCCOCCn1c2ccccc2c2cc(/C=C/c3cc[n+](CCO)c4ccccc34)ccc21` has a pKd [1] of 4.04.
`CNc1ccc(-c2nc3ccc(O)cc3s2)cc1[18F]` [FLUTEMETAMOL F 18] gave a pKd [2] of 8.17.
Work on `COCCOCCOCCOC(=O)/C(C#N)=C/c1ccc(-c2ccc3cc(N4CCCCC4)ccc3c2)o1` yielded a pKd [3] of 6.44.
Work on `Nc1c(/N=N/c2ccc(-c3ccc(/N=N/c4cc(S(=O)(=O)O)c5ccccc5c4N)cc3)cc2)cc(S(=O)(=O)O)c2ccccc12` yielded an ID50 [4] of 3.4 µM.
With `CCN(CC)c1ccc(/C=C/C2=CC(/C=C/c3ccc(N(C)C)cc3)=[O+][B-](F)(F)O2)cn1` the logP [5] was 1.94, the pKd [6] was 6.98 and the pKd [7] was 7.34.
`COCCOCCOCCOC(=O)/C(C#N)=C/c1ccc(N2CCCCC2)cc1` gave a pKd [3] of 4.71.
In the case of `COc1cc(N(C)C)cc(OC)c1/C=C/C=C/C=C/C(C#N)C(=O)OCc1ccco1` (centres undefined), the pKd [8] was 5.99 and the pKd [2] was 5.82.
`CN(C)c1ccc(/C=C/c2cc(/C=C/c3ccc(N(C)C)cc3)ncn2)cc1` showed a pKd [8] of 7.27 and a pIC50 [2] of 8.40.
With `O=C1NC(=S)NC(=O)C1=C/C=C/C=C/C1C(=O)NC(=S)NC1O` (centres undefined) the tissue uptake at 2 min [9] was 0.04 %ID/g.
`N#CC(C#N)=Cc1ccc(-c2ccc(-c3ccc(O)cc3)s2)s1` showed a pKd [2] of 7.26 and a pKi [2] of 8.00.
For `Cc1cc(/C=C/C=C/c2ccc(N(C)C)cc2)n2c1C=C1C=CC=[N+]1[B-]2(F)F`, the pKd [8] was 8.54 and the pKd [3] was 6.49.
In the case of `CC(C)CC1=CC(/C=C/C=C/c2ccc(N(C)C)cc2)=[O+][B-](F)(F)O1`, the pKd [8] was 4.30 and the pKd [2] was 5.85.
`COCCOCCOCCOC(=O)/C(C#N)=C/c1ccc(-c2ccc3cc(N4CCCCC4)ccc3c2)n1C` gave a pKd [3] of 5.64.
`C[n+]1ccc(/C=C/c2ccc(N(c3ccccc3)c3ccccc3)cc2)c2ccccc21` gave a pKd [6] of 4.59, a pKd [1] of 4.84 and a pKd [10] of 4.76. The pKd [7] was 4.50.
`CN(C)c1ccc2cc(/C=C/C=C/C=C(C#N)C#N)ccc2c1` gave a logP [5] of 4.48, a tissue uptake ([11]; Tg, brain, read-out: Drug uptake) of 3.4 %ID/g and a pKd [3] of 8.72. For the same molecule, the pKi [3] was 7.49.
`CC(=C(C#N)C#N)c1ccc2cc(N(C)C)ccc2c1` gave a pKi [3] of 8.00.
Work on `C[N+]1=C(/C=C/c2ccc(N3CCCC3)cc2)C(C)(C)c2ccccc21` yielded a pIC50 [8] of 8.29 and a pKd [1] of 5.08.
For `CN(C)c1ccc(/C=C/C=C/C=C2C(=O)CC(C)(C)CC2=O)cc1`, the pKi [12] was 6.19.
With `Cc1ccc2c(sc(-c3ccc4c(c3)sc(-c3ccc(N(C)C)cc3)[n+]4C)[n+]2C)c1S(=O)(=O)O` the pKd [8] was 5.72.
For `CN(C)c1ccc2cc3c(cc2c1)OCC(C=C(C#N)C#N)=C3`, the pKd [2] was 7.35.
`CN(C)c1ccc2nc(/C=C/C=C/C=C(C#N)C#N)cnc2c1` gave a Drug uptake ([11]; in vivo) of 7.76%, a pKd [8] of 7.37 and a pKd [2] of 7.48.
`CCN1/C(=C/C=C2\CCCC(/C=C(/C#N)C(=O)C(C)(C)C)=C2Cl)C(C)(C)c2ccccc21` showed a pKd [12] of 6.35.
Work on `COC(=O)C(=C/C=C/C=C/c1ccc(N(C)C)cc1)C(=O)OC` yielded a pKi [13] of 6.19 and a pKi [2] of 6.19.
With `COCCOCCn1c2ccccc2c2cc(/C=C/c3cc[n+](C)cc3)ccc21` the pKd [1] was 3.71.
`CN(C)c1ncc(/C=C/C=C/C=C/C=C(C#N)C#N)cn1` gave a pKi [2] of 6.01.
`Cc1cc(/C=C/c2ccc(N(C)C)o2)n2c1C=C1C=CC=[N+]1[B-]2(F)F` gave a pKd [14] of 6.83.
`COCCOCCOCC1=C2C(C)=CC(C)=[N+]2[B-](F)(F)n2c(/C=C/c3ccc(N(C)C)cc3)cc(C)c21` gave a pKd [14] of 7.31.
`CCCCN(CCCC)c1ccc2cc(/C=C/c3cc[n+](CCO)c4ccccc34)ccc2c1` showed a pKd [6] of 3.61, a pKd [1] of 4.48 and a pKd [15] of 3.31. The pKd [10] was 3.07, the pKd [16] was 4.38 and the pKd [7] was 2.96.
With `CN(C)c1ccc(/C=C/C=C/C=C/C=C(C#N)C#N)cn1` the pKi [2] was 7.03.
`Cc1ccc2nc(-c3ccc(N(C)C)cc3)sc2c1` gave a pKi [1] of 6.84.
`CCCCN(CCCC)c1ccc2cc(/C=C/c3cc[n+](C)c4ccccc34)ccc2c1` gave a pKd [6] of 4.15, a pKd [1] of 4.41 and a pKd [15] of 3.89. The pKd [10] was 3.61, the pKd [16] was 4.70 and the pKd [7] was 3.55.
With `Cc1cc(/C=C/c2ccc(-c3ccc(N(C)C)cc3)o2)n2c1C=C1C=CC=[N+]1[B-]2(F)F` the pKd [14] was 7.74.
In the case of `COCCOCCOCC1=C2C(C)=CC(/C=C/c3ccc(N(C)C)cc3)=[N+]2[B-](F)(F)n2c(/C=C/c3ccc(N(C)C)cc3)cc(C)c21`, the pKd [14] was 7.01.
In the case of `CN(C)c1ccc(/C=C/C=C/C=C/C=C(C#N)C#N)cc1`, the pKi [2] was 7.85.
Work on `Cc1cc(/C=C/c2ccc3cc(N(C)C)ccc3c2)n2c1C=C1C=CC=[N+]1[B-]2(F)F` yielded a pKd [8] of 8.92 and a pKd [3] of 6.79.
